# From patent publication US8217042B2, “Pyridopyrazines and their use as modulators of kinases” (Zentaris GmbH, priority 2005, dated 2012)
# pIC50: −log10 of the molar value.
# Experiments:
# Erk2 = molecular target: T1, Erk2; assay: Cell-free kinase assay (ALPHA technology), Erk2-ALPHA; assay type: biochemical; conditions: 10 μM ATP, recombinant human kinase
# T1 construct: in some cases as full-length kinases, in some cases as truncated fragments; purchased Upstate 14-173
# Method in brief: (§1)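 Recombinant GST- or His-tagged kinases (full-length or kinase-domain fragments); ALPHA bead detection read after overnight incubation. PI3Kalpha: 1 ng enzyme, 100 μM ATP, 20 μM PIP2, 1 h, pH 7.4 Hepes buffer, GST:Grp1 with biotinylated PIP3 detection; Erk2 read via anti-phospho-MBP. % inhibition versus no-ATP/no-substrate and no-compound controls, giving IC50.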
# PI3Kalpha = molecular target: T2, PI3Kalpha (Homo sapiens, UniProt P42336); assay: Cell-free kinase assay (ALPHA technology), PI3K-ALPHA; assay type: biochemical; conditions: 100 μM ATP, recombinant human kinase
# T2 construct: in some cases as full-length kinases, in some cases as truncated fragments; purchased Upstate 14-602
# T2 sequence (P42336 whole entry, the tested form may be a part): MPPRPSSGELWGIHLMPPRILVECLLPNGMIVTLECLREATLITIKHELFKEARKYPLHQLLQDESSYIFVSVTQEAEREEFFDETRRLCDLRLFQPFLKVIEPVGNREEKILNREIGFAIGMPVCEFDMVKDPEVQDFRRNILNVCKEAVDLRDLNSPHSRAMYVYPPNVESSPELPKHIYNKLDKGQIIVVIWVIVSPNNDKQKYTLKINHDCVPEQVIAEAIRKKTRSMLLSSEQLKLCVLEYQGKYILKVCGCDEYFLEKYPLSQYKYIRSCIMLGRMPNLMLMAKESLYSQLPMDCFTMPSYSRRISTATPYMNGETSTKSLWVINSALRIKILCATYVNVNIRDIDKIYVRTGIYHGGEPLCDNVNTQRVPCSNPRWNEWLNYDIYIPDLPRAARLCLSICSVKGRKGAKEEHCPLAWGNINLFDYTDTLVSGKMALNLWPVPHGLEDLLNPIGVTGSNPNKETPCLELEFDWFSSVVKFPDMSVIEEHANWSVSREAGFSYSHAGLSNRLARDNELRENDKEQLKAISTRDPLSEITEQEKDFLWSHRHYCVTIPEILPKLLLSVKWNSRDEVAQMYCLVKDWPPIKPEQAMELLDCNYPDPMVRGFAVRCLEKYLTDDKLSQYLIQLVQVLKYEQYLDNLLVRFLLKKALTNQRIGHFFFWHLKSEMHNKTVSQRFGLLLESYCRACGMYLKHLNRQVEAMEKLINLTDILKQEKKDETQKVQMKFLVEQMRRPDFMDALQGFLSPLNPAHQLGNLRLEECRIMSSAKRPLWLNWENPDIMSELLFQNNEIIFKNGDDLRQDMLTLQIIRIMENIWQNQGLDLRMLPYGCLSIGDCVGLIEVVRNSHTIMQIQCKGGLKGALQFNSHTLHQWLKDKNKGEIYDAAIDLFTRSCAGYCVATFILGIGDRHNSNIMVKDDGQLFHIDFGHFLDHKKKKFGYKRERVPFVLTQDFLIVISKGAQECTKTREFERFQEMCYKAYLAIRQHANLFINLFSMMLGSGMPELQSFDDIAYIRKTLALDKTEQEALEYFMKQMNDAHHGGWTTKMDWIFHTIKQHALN
# T2 sequence (P27986 whole entry partner, the tested form may be a part): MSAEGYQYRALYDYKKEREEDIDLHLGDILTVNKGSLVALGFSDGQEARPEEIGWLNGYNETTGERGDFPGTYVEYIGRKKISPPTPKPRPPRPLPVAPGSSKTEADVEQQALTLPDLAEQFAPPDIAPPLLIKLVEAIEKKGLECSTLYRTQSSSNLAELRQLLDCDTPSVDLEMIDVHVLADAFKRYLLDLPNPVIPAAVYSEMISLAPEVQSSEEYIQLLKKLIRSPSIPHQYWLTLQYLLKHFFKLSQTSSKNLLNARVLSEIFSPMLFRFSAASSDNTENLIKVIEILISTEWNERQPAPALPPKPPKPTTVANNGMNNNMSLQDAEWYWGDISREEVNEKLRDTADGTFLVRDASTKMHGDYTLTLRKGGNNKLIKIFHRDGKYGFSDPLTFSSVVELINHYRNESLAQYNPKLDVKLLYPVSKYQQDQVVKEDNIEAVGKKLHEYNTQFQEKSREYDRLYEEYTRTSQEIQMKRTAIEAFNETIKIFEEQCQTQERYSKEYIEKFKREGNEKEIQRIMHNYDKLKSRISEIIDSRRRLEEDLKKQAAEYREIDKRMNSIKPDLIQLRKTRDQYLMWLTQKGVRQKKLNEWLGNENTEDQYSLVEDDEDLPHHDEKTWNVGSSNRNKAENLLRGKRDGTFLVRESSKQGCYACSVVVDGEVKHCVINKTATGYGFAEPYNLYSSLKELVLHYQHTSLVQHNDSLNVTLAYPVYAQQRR
# Method in brief: as §1
# p38alpha = molecular target: T3, p38alpha (Homo sapiens, UniProt Q16539); assay: Cell-free kinase assay (ALPHA technology), p38alpha; assay type: biochemical; conditions: at 10 μM or 100 μM* ATP, recombinant human kinase
# T3 construct: in some cases as full-length kinases, in some cases as truncated fragments
# T3 sequence (Q16539 whole entry, the tested form may be a part): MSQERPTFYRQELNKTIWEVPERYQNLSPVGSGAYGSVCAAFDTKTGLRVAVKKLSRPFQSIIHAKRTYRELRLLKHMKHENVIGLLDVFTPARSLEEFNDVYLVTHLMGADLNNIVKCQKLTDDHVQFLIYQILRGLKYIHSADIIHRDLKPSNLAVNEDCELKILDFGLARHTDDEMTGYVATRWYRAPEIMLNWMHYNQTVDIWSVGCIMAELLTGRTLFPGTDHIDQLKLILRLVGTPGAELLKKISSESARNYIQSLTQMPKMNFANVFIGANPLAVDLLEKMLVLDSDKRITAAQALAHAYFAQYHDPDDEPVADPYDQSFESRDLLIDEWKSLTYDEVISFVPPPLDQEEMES
# Protocol: The inhibitory effect of the inventive compounds was tested on various human serine/threonine kinases, tyrosine kinases and lipid kinases in enzymatic assays. Recombinant human kinases, for example Erk2, PI3Kalpha, -beta, -gamma, -delta, p38alpha, p38gamma, Jnk1, Jnk2 and others were used, in some cases as full-length kinases, in some cases as truncated fragments—but at least consisting of the functional kinase domains. The commercial kinase proteins (Proqinase, Upstate) were used as recombinant fusion proteins with GST (glutathione S-transferase) tag or His tag. Depending on the substrate type, the different kinase reactions were quantified by means of suitable ALPHA™ beads (PerkinElmer). […]
# The fluorescence was detected the next morning in a Fusion™ alpha instrument (Perkin Elmer).
# The calculation of % inhibition values per substance concentration was done by means of the following formula from the raw data determined in the Fusion™ alpha:
# The controls were each determined 8 times, the substance samples each twice. 0% control contained neither any ATP nor any substrate; the 100% control contained no test substance. The IC50 values were determined with GraphPadPrism.
# Jnk1 + Jnk2 = assay: Cell-free kinase assay (ALPHA technology), Jnk1 + Jnk2; assay type: biochemical; conditions: at 10 μM or 100 μM* ATP, recombinant human kinases
# Erk →pRsk = assay: Cellular substrate phosphorylation (Western blotting), Erk substrate Rsk1; assay type: cell-based; conditions: 5 h, tumour cell line
# Protocol: (§2) This method enables a statement of whether the kinase modulator investigated achieves the desired effect in a cellular context too, i.e., in this case, a substrate protein downstream of the target kinase is examined for its phosphorylation status. To this end, the cells incubated with substance are lysed and the overall protein is separated on a reducing polyacrylamide gel. Subsequently, the proteins are transferred by means of Western blotting to a PVDF membrane and the substrate bands sought are made visible with specific antibodies and a suitable detection method. The substrate proteins downstream of the target kinases are detected simultaneously with an anti-phospho antibody which is specific in each case and simultaneously a total antibody which recognizes the substrate total protein. The duplex technology of the ODYSSEY imager (LiCOR) enables this simultaneous measurement. The intensity of the total substrate bands is employed to normalize and quantify the phosphorylation inhibition or activation.
# (§3) Suitable tumour cell lines (e.g. BxPC3, Hct116 or MDA MB468) were seeded into 6-well microtitre plates in a defined cell count (e.g. 350 000 cells/well for BxPC3 and Hct116) in the particular standard complete media and then incubated overnight in an incubator at 37° C., 5% CO2 and 95% air humidity. The cells were then incubated further for a further 24 h under reduced-serum conditions, i.e. in the particular medium except at only 0.25% serum. The test substances were made up as stock solutions (10 mM) in DMSO and incubated with the cells at final concentrations of 5, 15.8 and 50 μM for 5 h. This was followed by cell lysis in 25 mM Tris, 150 mM NaCl, 10 mM sodium pyrophosphate, 2 mM EGTA, 25 mM beta-glycerophosphate, 25 mM NaF, 10% glycerol, 0.75% NP-40, 100 μM NaVO4 buffer. After protein quantification by means of BCA (bicinchonic acid protein assay kit, Sigma) assay, amounts of protein of about 20 μg per track were separated on a Lammli polyacrylamide gel and then transferred onto a PVDF membrane (Millipore) by means of semi-dry Western blotting at 0.8 mA/cm^2 for 1 h. This was followed by prehybridization of the membrane for 1 hour in I-block reagent (Applied Biosystems) and overnight incubation with the specific antibodies. To determine the Erk and PI3K inhibition, the next substrates Rsk1 downstream were detected with the total antibody (Rsk #sc-231g C-21, Santa Cruz) and the phospho antibody (Phospho-p90RSK (S380) #9341, NEB Cell Signalling) and Akt with the total antibody (Akt1 #sc-20, Santa Cruz) and the phospho antibody (Phospho-Akt (Ser 473) #9271, NEB Cell Signaling). After the membrane had been washed, the secondary antibodies were incubated with anti-rabbit IR Dye 800 (#611-732-127, Rockland) for the phospho antibody and anti-goat Alexa Fluor 680 (#A-21081, […]) for the total protein antibody. After incubation for 30 min at room temperature in the dark, the hybridization of the detection antibody was detected on the membrane by scanning in an ODYSSEY imager (LiCOR).
# PI3K →pAkt = assay: Cellular substrate phosphorylation (Western blotting), PI3K substrate Akt; assay type: cell-based; conditions: 5 h, tumour cell line
# Protocol: as §2, §3
# T1 sequence (P63085 whole entry, the tested form may be a part): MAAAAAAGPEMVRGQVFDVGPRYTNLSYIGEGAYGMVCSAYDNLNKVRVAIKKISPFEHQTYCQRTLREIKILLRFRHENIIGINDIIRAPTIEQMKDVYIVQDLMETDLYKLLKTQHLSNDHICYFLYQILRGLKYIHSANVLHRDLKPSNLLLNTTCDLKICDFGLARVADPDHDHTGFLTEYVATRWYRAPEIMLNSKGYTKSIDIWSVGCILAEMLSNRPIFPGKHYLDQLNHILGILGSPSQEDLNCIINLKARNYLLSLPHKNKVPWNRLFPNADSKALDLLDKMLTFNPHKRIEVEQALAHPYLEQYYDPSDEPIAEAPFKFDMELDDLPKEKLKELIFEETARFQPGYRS
smiles,measurement,setting,value
"CCNC(=O)Nc1ccc2ncc(Nc3ccc(C)c(NS(C)(=O)=O)c3)nc2n1 [Compound 49, N-{5-[6-(3-Ethylurea)pyrido[2,3-b]pyrazin-3-ylamino]-2-methylphenyl}methanesulphonamide]",pIC50,Erk2,5.02
same,pIC50,PI3Kalpha,5.72
same,pIC50,p38alpha,5.40
same,pIC50,Jnk1 + Jnk2,< 4.50
same,inhibition at 50 µM,Erk →pRsk,0%
same,inhibition at 50 µM,PI3K →pAkt,90%
